In ChEMBL document CHEMBL5143581, “Design, synthesis and molecular docking studies of imidazole and benzimidazole linked ethionamide derivatives as inhibitors of InhA and antituberculosis agents” (Bioorg Med Chem Lett, 2022):
In brackets after ≈: the same amount, converted by molar mass.

System: Mycobacterium tuberculosis
Experiment: Antimycobacterial activity against InhA overexpressing Mycobacterium tuberculosis InhA-OE
Assay type: functional

SMILES	MIC [µM]
Cn1cc(O)nc1NC(=O)c1cc(C(N)=S)ccn1	1.99 (≈ 0.552 µg/mL)
Cn1cc(C#N)nc1NC(=O)c1cc(C(N)=S)ccn1	2.53 (≈ 0.724 µg/mL)
COc1ccc2c(c1)nc(NC(=O)c1cc(C(N)=S)ccn1)n2C	0.72 (≈ 0.246 µg/mL)
Cn1c(NC(=O)c2cc(C(N)=S)ccn2)nc2cc(O)ccc21	0.54 (≈ 0.177 µg/mL)
NNC(=O)c1ccncc1 [ISONIAZID]	0.74 (≈ 0.101 µg/mL)
